Values quoted from earlier work, collected in the PKSmart pharmacokinetics tables (Seal et al. 2025).
*1 amine or outer side, *2 acyl side, *3 side chain or, on linkers, in order; H or OH if unused. Where a SMILES comes first, the peptide text is derived from it. Bridges are numbered along the chain shown (N, C = ends). [ ]: non-standard residue; d: D form. ξ: configuration not given here. ξPro(4R-OH) = O=C(O)C1C[C@@H](O)CN1; pGlu = O=C1CC[CH](C(=O)O)N1; ξ2Thi = NC(Cc1cccs1)C(=O)O; ξR = N=C(N)NCCCC(N)C(=O)O; Iva = CC[C@](C)(N)C(=O)O; ξF = NC(Cc1ccccc1)C(=O)O; X3 = O=C(CCC[*:2])[*:1]; Thz = O=C(O)[CH]1CSCN1; ξN = NC(=O)CC(N)C(=O)O; ξC = NC(CS)C(=O)O

Test: Lombardo, Berellini, Obach 2018, Drug Metab Dispos 46:1466, doi 10.1124/dmd.118.082966
Settings: human; for MRT / Vd / clearance / half-life: in vivo, iv; for fraction unbound: plasma

SMILES | MRT [h] | Vd [L/kg] | clearance [mL/min/kg] | half-life [h] | fraction unbound
COC1C(=O)C(C)C[C@H](C)/C=C/C=C/C=C(\C)[C@@H](OC)C[C@@H]2CC[C@@H](C)[C@@](O)(O2)C(=O)C(=O)N2CCCCC2C(=O)O[C@H]([C@H](C)C[C@@H]2CC[C@@H](OC(=O)C(C)(CO)CO)[C@H](OC)C2)CC(=O)C(C)=CC(C)[C@H]1O (some centres not stated) | 10 | 3 | 7.7 | 18 | –
CCC/N=C1\S/C(=C\c2ccc(OC[C@H](O)CO)c(Cl)c2)C(=O)N1c1ccccc1C | 42.6 | 2.28 | 0.9 | 32.9 | –
CN(C)c1ccc(O)c2c1C[C@H]1C[C@H]3[C@H](N(C)C)C(O)=C(C(N)=O)C(=O)[C@@]3(O)C(O)=C1C2=O | – | – | – | – | 0.005
CC(NC(=O)C(Cc1c[nH]c2ccccc12)NC(=O)C(N)Cc1cnc[nH]1)C(=O)NC(Cc1c[nH]c2ccccc12)C(=O)NC(Cc1ccccc1)C(=O)NC(CCCCN)C(N)=O (configuration not stated) (H-HWAWFK-NH2; configuration not given here) | 2.45 | 0.42 | 3.1 | 2.46 | –
C[C@@H](O[C@H]1OCCN(Cc2nc(=O)n(P(=O)(O)O)[nH]2)[C@H]1c1ccc(F)cc1)c1cc(C(F)(F)F)cc(C(F)(F)F)c1 | 0.06 | 0.07 | 18.6 | 2.2 | 0.02
CC[C@@]1(O)C(=O)OCc2c1cc1n(c2=O)Cc2c-1nc1cc(F)c(C)c3c1c2[C@@H](N)CC3 | 7.6 | 0.44 | 0.96 | 6.7 | –
CC[C@]1(O)C[C@@H]2CN(CCc3c([nH]c4ccccc34)[C@@](C(=O)OC)(c3cc4c(cc3OC)N(C=O)[C@H]3[C@@](O)(C(=O)OC)[C@H](OC(C)=O)[C@]5(CC)C=CCN6CC[C@]43[C@@H]65)C2)C1 | 20 | 2.4 | 2 | 23 | –
CC(Oc1ccccc1)C(=O)NC1C(=O)N2C(C(=O)O)C(C)(C)S[C@H]12 (some centres not stated) | 1.2 | 0.3 | 4.2 | 0.91 | 0.25
CN1CCOC(c2ccccc2)c2ccccc2C1 (configuration not stated) | 8.1 | 5.6 | 12 | 5 | –
CN1CCc2nc(C(=O)N[C@@H]3CC(C(=O)N(C)C)CC[C@@H]3NC(=O)C(=O)Nc3ccc(Cl)cn3)sc2C1 (some centres not stated) | – | – | – | – | 0.5
O=C(c1ccc(F)c(F)c1Nc1ccc(I)cc1F)N1CC(O)([C@@H]2CCCCN2)C1 | 96.6 | 15.4 | 2.8 | 68.8 | 0.05
CCN(CC)CCNC(=O)c1cc(Cl)c(N)cc1OC(C)C(C)=O (configuration not stated) | 2.68 | 1.5 | 9.32 | 2.7 | 0.46
C[C@@H](O)C1C(=O)N2C(C(=O)[O-])=C(S[C@H]3CC[S@@+](O)C3)S[C@@H]12 (some centres not stated) | 0.7 | 0.21 | 5.1 | 0.9 | 0.9
NCCCCC(NC(=O)C(Cc1cc(Br)c(O)c(Br)c1)NC(=O)N1CCC(N2Cc3ccccc3NC2=O)CC1)C(=O)N1CCN(c2ccncc2)CC1 (configuration not stated) | 1.9 | 0.31 | 2.6 | 2.5 | –
O=C(Cn1ccnc1[N+](=O)[O-])NCC(O)C(F)(F)F (configuration not stated) | 3.86 | 0.69 | 3 | 3.45 | –
COCC(=O)Nc1c(I)c(C(=O)NCC(O)CO)c(I)c(C(=O)N(C)CC(O)CO)c1I (configuration not stated) | 2.6 | 0.22 | 1.4 | 2.6 | 0.99
NS(=O)(=O)c1cc(C2(O)NC(=O)c3ccccc32)ccc1Cl (configuration not stated) | 43 | 3.9 | 1.5 | 36 | –
Nc1nc2ccc(OC(F)(F)F)cc2s1 | 5.2 | 3.5 | 11.3 | – | 0.04
NC(C(=O)NC1C(=O)N2C(C(=O)O)=C(CSc3c[nH]nn3)CS[C@H]12)c1ccc(O)cc1 (some centres not stated) | 1.1 | 0.22 | 3.3 | 1.2 | –
C[N+](C)(O)CCCN1c2ccccc2CCc2ccccc21 | 2.6 | 1.9 | 12 | 1.8 | –
Cn1nnnc1SCC1=C(C(=O)O)N2C(=O)C(=NC(=O)C(NOCC(=O)O)c3cc[nH]n3)[C@H]2SC1 (some centres not stated) | 1.8 | 0.22 | 1.83 | 1.33 | –
NC[C@H]1O[C@H](O[C@H]2[C@H](O[C@@H]3O[C@H](CO)[C@@H](O)[C@H]3O)[C@@H](O)[C@H](N)C[C@@H]2N)[C@H](N)[C@@H](O)[C@@H]1O | 2.8 | 0.25 | 1.5 | 2.5 | –
CON=C(C(=O)NC1C(=O)N2C(C(=O)O)=C(C)CS[C@H]12)c1csc(N)n1 (some centres not stated) | 2.5 | 0.28 | 1.9 | 2.1 | 0.78

SMILES | MRT [h] | Vd [L/kg] | clearance [mL/min/kg] | half-life [h] | fraction unbound
Cc1cccc(C)c1NC(=O)C1CCCCN1C (configuration not stated) | 2.5 | 0.95 | 6.8 | 2 | 0.3
O=c1ccc2ccc(OCCCCN3CCN(c4cccc5sccc45)CC3)cc2[nH]1 | 71 | 1.46 | 0.34 | 54.4 | 0.002
NC(CCC(=O)NC(Cc1ccc(O)c(O)c1)C(=O)O)C(=O)O (configuration not stated) | 0.74 | 0.21 | 4.6 | 0.5 | –
CCCn1c(=O)c2[nH]c(C34CC5CC(CC3C5)C4)nc2n(CCC)c1=O | 14.1 | 4.3 | 5 | 18.1 | –
O=C1CCC(C(=O)N2CSCC2C(=O)O)N1 (configuration not stated) ([pGlu]-[Thz]-OH; configuration not given here) | 4.5 | 0.31 | 1.16 | 3.8 | 0.96
CC(C)CC(NC(=O)C(CCc1ccccc1)NC(=O)CN1CCOCC1)C(=O)NC(Cc1ccccc1)C(=O)NC(CC(C)C)C(=O)[C@@]1(C)CO1 (some centres not stated) | 0.05 | 0.13 | 39.5 | 1.1 | 0.02
C=Cc1c(C)c2[nH]c1=Cc1[nH]c(c(=CCC(=O)OC)c1C)=Cc1[nH]c(c(C)c1CCC(=O)O)C=C1NC(=C3C=CC(C(=O)OC)=C(C(=O)OC)[C@@]13C)C=2 | 4.9 | 0.51 | 1.73 | 6.06 | –
C[C@]12CC[C@@H]3c4ccc([O-])cc4C[C@H](CCCCCCCCC[S+](O)CCCC(F)(F)C(F)(F)F)C3[C@@H]1CC[C@@H]2O (some centres not stated) | 5.86 | 4.15 | 11.8 | 16 | 0.01
COC(=O)C(c1ccccc1Cl)N1CCc2sccc2C1 (configuration not stated) | 1.42 | 2.01 | 23.6 | 5.06 | 0.02
Cc1c(-c2ccc(O)cc2)n(Cc2ccc(OCCN3CCCCCC3)cc2)c2ccc(O)cc12 | – | – | – | – | 0.02
CCC(=O)C1(c2cccc(O)c2)CCN(C)CC1 | 0.87 | 0.48 | 9.2 | 2.3 | –
CC(C)(F)CC(N[C@@H](c1ccc(-c2ccc(S(C)(=O)=O)cc2)cc1)C(F)(F)F)C(=O)NC1(C#N)CC1 (some centres not stated) | 147 | 1.63 | 0.19 | 108 | –
Nc1ccn([C@@H]2O[C@H](CO)C[C@@H]2F)c(=O)n1 | 1.9 | 0.7 | 6.1 | 1.8 | 1
CC(=O)C[C@H](c1ccc([N+](=O)[O-])cc1)c1c(O)c2ccccc2oc1=O | 3.12 | 0.24 | 1.28 | 7.22 | 0.02
CC[C@H]1C2C[C@H]3[C@@H]4N(C)c5ccccc5C45C[C@@H](C2[C@H]5O)N3[C@@H]1O (some centres not stated) | 6.8 | 4 | 9.8 | 7.3 | 0.24
NCCc1ccc(O)c(O)c1 | 0.19 | 0.74 | 65.9 | 0.42 | 0.87
OCc1ncc2n1-c1ccc(Cl)cc1C(c1ccccc1F)=NC2 | 1.3 | 0.77 | 9.71 | 1.1 | 0.1
O=C1NC(=O)C(c2ccccc2)(c2ccccc2)N1 | 17.6 | 0.43 | 0.37 | 16.8 | 0.13
CC[C@]1(C)NC(=O)C(Cc2cccs2)NC(=O)C(Cc2ccccc2)NC(=O)CCCSCC(C(=O)N2C[C@H](O)CC2C(=O)NC(CCCNC(=N)N)C(=O)NCC(N)=O)NC(=O)C(CC(N)=O)NC1=O (stereo partly drawn) ([ξF][ξ2Thi][Iva][ξN][ξC][ξPro(4R-OH)][ξR]G-NH2; linker N-5 via X3) | 5.63 | 0.31 | 0.87 | 4.28 | –
Oc1ccc2c(c1)[C@@]13CCCC[C@@]1(O)[C@@H](C2)N(CC1CCC1)CC3 | 5.3 | 12 | 41 | 4.8 | 0.17
CC(C)(C)c1cnc(CSc2cnc(NC(=O)C3CCNCC3)s2)o1 | 7.13 | 5.14 | 13 | 9.3 | –
NS(=O)(=O)c1cc2c(cc1C(F)(F)F)NCNS2(=O)=O | 3.8 | 2.2 | 9.7 | 5.2 | –
CN(C)[C@@H]1C(O)=C(C(N)=O)C(=O)[C@@]2(O)C(O)=C3C(=O)c4c(O)c(NC(=O)CN5CCCC5)cc(F)c4C[C@H]3C[C@@H]12 | 10.3 | 2.3 | 3.71 | – | 0.18

SMILES | MRT [h] | Vd [L/kg] | clearance [mL/min/kg] | half-life [h] | fraction unbound
Nc1ccncc1 | 4.7 | 2.6 | 9.3 | 3.6 | 1
COc1cc2c(cc1OC)CC(=O)N(CCCN(C)C[C@H]1Cc3cc(OC)c(OC)cc31)CC2 | 2.69 | 1.66 | 10.3 | – | 0.28
NC[C@H]1O[C@H](O[C@H]2[C@H](O)[C@@H](O[C@H]3O[C@H](CO)[C@@H](O)[C@H](N)[C@H]3O)[C@H](N)C[C@@H]2N)[C@H](O)[C@@H](O)[C@@H]1O | 3.1 | 0.26 | 1.4 | 2.1 | –
COC(=O)NC(C(=O)N1CCCC1C(=O)Nc1ccc([C@@H]2CC[C@@H](c3ccc(NC(=O)C4CCCN4C(=O)C(NC(=O)OC)C(C)C)cc3)N2c2ccc(C(C)(C)C)cc2)cc1)C(C)C (some centres not stated) | 23.1 | 2.32 | 1.68 | 28.5 | 0.001
OCCN(CCc1c[nH]c2ccccc12)Cc1ccc(/C=C/C(O)=NO)cc1 | 4.78 | 2.17 | 7.6 | 12.4 | 0.23
C[C@H]1O[C@H](O[C@H]2[C@H](O)[C@@H](O)[C@@H](OC(C(=O)C(O)CO)[C@H](O)CO)O[C@@H]2CO)[C@H](O)[C@@H](O)[C@@H]1N[C@H]1C=C(CO)[C@@H](O)[C@H](O)[C@H]1O (some centres not stated) | 2.4 | 0.32 | 2.2 | 2.7 | –
COP(=O)(c1cc(C)cc(/C=C/C#N)c1)c1c(C(N)=O)[nH]c2ccc(Cl)cc12 (configuration not stated) | 5.5 | 0.56 | 1.71 | 4.4 | –
CC(=O)NCCCS(=O)(=O)O | 1.54 | 0.3 | 3.75 | 3.2 | 1
CCN(CC)CCOC(=O)C(Cc1cccc2ccccc12)CC1CCCO1 (configuration not stated) | 1.5 | 0.98 | 10.8 | 1.35 | 0.2
CC1(C)S[C@@H]2C(NC(=O)COc3ccccc3)C(=O)N2C1C(=O)O (some centres not stated) | 1 | 0.41 | 6.8 | 0.84 | –
NC(Cc1ccccn1)c1ccccc1 (configuration not stated) | 15.1 | 1.62 | 1.8 | 10.4 | –
CC1=C(C(=O)O)N2C(=O)C(NC(=O)C(N)c3ccc(O)cc3)[C@H]2SC1 (some centres not stated) | 1.5 | 0.23 | 2.5 | 1.1 | –
Cc1ccc(-n2ccnc2)cc1C(O)c1c(C)cc(C(=O)O)cc1C (configuration not stated) | 2.17 | 0.37 | 2.91 | 2.37 | –
NS(=O)(=O)c1ccc(S(=O)(=O)Nc2cccc3c(Cl)c[nH]c23)cc1 | 16.9 | 0.68 | 0.72 | 20.3 | 0.001
CN(C)CCC(c1ccc(Cl)cc1)c1ccccn1 (configuration not stated) | 22 | 3.3 | 2.5 | – | –
O=P1(NCCCl)OCCCN1CCCl (configuration not stated) | 9.4 | 0.62 | 1.1 | 6.6 | –
CCOC(Cc1ccc(OCCc2ccc(OS(C)(=O)=O)cc2)cc1)C(=O)O (configuration not stated) | 56 | 0.13 | 0.039 | 45 | –
CO[C@@H]1C[C@@](C)(O)Cc2cc3c(c(O)c21)C(=O)c1c(O)cc2c(c1C3=O)O[C@@H]1O[C@]2(C)[C@@H](O)[C@@H](N(C)C)[C@@H]1O | 13.1 | 9.14 | 11.6 | 13.2 | –
Cc1nccn1CCC(C(N)=O)(c1ccccc1)c1ccccc1 | 4.1 | 1.51 | 6.1 | 3.2 | 0.12
CC(C)[N+]1(C)[C@@H]2CC[C@H]1CC(OC(=O)C(CO)c1ccccc1)C2 (some centres not stated) | 2.7 | – | – | – | –
C[C@@H](O)C1C(=O)N2C(C(=O)O)=C(CN)S[C@H]12 (some centres not stated) | 0.5 | 0.23 | 7.67 | 0.5 | –
